ChEMBL document CHEMBL1158386, “Synthesis and biological evaluation of some thiazolidinone derivatives of steroid as antibacterial agents” (2009)
In brackets after ≈: the same amount, converted by molar mass.

Legend:
Staphylococcus aureus [1] = assay: Antibacterial activity against Staphylococcus aureus at 100 ug/ml after 18 hrs by disk diffusion method; type: functional; conditions: read-out: IZ
Streptococcus pyogenes [2] = assay: Antibacterial activity against Streptococcus pyogenes at 100 ug/ml after 18 hrs by disk diffusion method; type: functional; conditions: read-out: IZ
[3] = test system: Salmonella enterica subsp. enterica; assay: Antibacterial activity against Salmonella Typhimurium at 100 ug/ml after 18 hrs by disk diffusion method; type: functional, Salmonella enterica subsp. enterica serovar Typhimurium; conditions: read-out: IZ
Escherichia coli [4] = assay: Antibacterial activity against Escherichia coli at 100 ug/ml after 18 hrs by disk diffusion method; type: functional; conditions: read-out: IZ
Staphylococcus aureus [5] = assay: Antibacterial activity against Staphylococcus aureus after 18 hrs by macro dilution test; type: functional
Streptococcus pyogenes [6] = assay: Antibacterial activity against Streptococcus pyogenes after 18 hrs by macro dilution test; type: functional
[7] = test system: Salmonella enterica subsp. enterica; assay: Antibacterial activity against Salmonella Typhimurium after 18 hrs by macro dilution test; type: functional, Salmonella enterica subsp. enterica serovar Typhimurium
Escherichia coli [8] = assay: Antibacterial activity against Escherichia coli after 18 hrs by macro dilution test; type: functional
Staphylococcus aureus [9] = assay: Antibacterial activity against Staphylococcus aureus at 30 ug/disk after 18 hrs by disk diffusion method; type: functional; conditions: read-out: IZ
Streptococcus pyogenes [10] = assay: Antibacterial activity against Streptococcus pyogenes at 30 ug/disk after 18 hrs by disk diffusion method; type: functional; conditions: read-out: IZ
[11] = test system: Salmonella enterica subsp. enterica; assay: Antibacterial activity against Salmonella Typhimurium at 30 ug/disk after 18 hrs by disk diffusion method; type: functional, Salmonella enterica subsp. enterica serovar Typhimurium; conditions: read-out: IZ
Escherichia coli [12] = assay: Antibacterial activity against Escherichia coli at 30 ug/disk after 18 hrs by disk diffusion method; type: functional; conditions: read-out: IZ

Row | Compound | zone of inhibition at 100 µg/mL (Staphylococcus aureus [1]) [mm] | zone of inhibition at 100 µg/mL (Streptococcus pyogenes [2]) [mm] | zone of inhibition at 100 µg/mL [3] [mm] | zone of inhibition at 100 µg/mL (Escherichia coli [4]) [mm] | MIC (Staphylococcus aureus [5]) [µg/mL] | MIC (Streptococcus pyogenes [6]) [µg/mL] | MIC [7] [µg/mL] | MIC (Escherichia coli [8]) [µg/mL] | zone of inhibition at 30 µg/disc (Staphylococcus aureus [9]) [mm] | zone of inhibition at 30 µg/disc (Streptococcus pyogenes [10]) [mm] | zone of inhibition at 30 µg/disc [11] [mm] | zone of inhibition at 30 µg/disc (Escherichia coli [12]) [mm]
1 | CC(=O)O[C@H]1CC[C@@]2(C)[C@H](C1)/C(=N\N=C1/SCC(=O)N1C1CCCC1)C[C@@H]1[C@@H]2CC[C@]2(C)[C@@H]([C@H](C)CCCC(C)C)CC[C@@H]12 | 18.5 | 21.4 | 19.6 | 22.8 | 64 (≈ 102 µM) | 32 (≈ 51.1 µM) | 64 (≈ 102 µM) | 32 (≈ 51.1 µM) |  |  |  | 
2 | CC(C)CCC[C@@H](C)[C@H]1CC[C@H]2[C@@H]3C/C(=N/NC(=S)NC4CCCC4)[C@H]4CCCC[C@]4(C)[C@H]3CC[C@]12C | 9.4 | 10.2 | 10.4 | 12.3 |  |  |  |  |  |  |  | 
3 | CC1(C)S[C@@H]2[C@H](NC(=O)[C@H](N)c3ccc(O)cc3)C(=O)N2[C@H]1C(=O)O [AMOXICILLIN] |  |  |  |  | 32 (≈ 87.6 µM) | 32 (≈ 87.6 µM) | 32 (≈ 87.6 µM) | 32 (≈ 87.6 µM) | 17 | 18.2 | 17.2 | 20.2
4 | CC(C)CCC[C@@H](C)[C@H]1CC[C@H]2[C@@H]3C/C(=N/N=C4\SCC(=O)N4C4CCCC4)[C@H]4C[C@@H](Cl)CC[C@]4(C)[C@H]3CC[C@]12C | 20.4 | 21.4 | 19.4 | 22.5 | 32 (≈ 53.1 µM) | 32 (≈ 53.1 µM) | 64 (≈ 106 µM) | 64 (≈ 106 µM) |  |  |  | 
5 | CC(C)CCC[C@@H](C)[C@H]1CC[C@H]2[C@@H]3C/C(=N/N=C4\SCC(=O)N4C4CCCC4)[C@H]4CCCC[C@]4(C)[C@H]3CC[C@]12C | 14.5 | 15.2 | 13.6 | 14.2 | 128 (≈ 225 µM) | 128 (≈ 225 µM) | 128 (≈ 225 µM) | 128 (≈ 225 µM) |  |  |  | 
6 | CC(=O)O[C@H]1CC[C@@]2(C)[C@H](C1)/C(=N\NC(=S)NC1CCCC1)C[C@@H]1[C@@H]2CC[C@]2(C)[C@@H]([C@H](C)CCCC(C)C)CC[C@@H]12 | 12.6 | 11.4 | 10.4 | 13.3 |  |  |  |  |  |  |  | 
7 | CC(C)CCC[C@@H](C)[C@H]1CC[C@H]2[C@@H]3C/C(=N/NC(=S)NC4CCCC4)[C@H]4C[C@@H](Cl)CC[C@]4(C)[C@H]3CC[C@]12C | 11.5 | 10.2 | 11.2 | 11.7 |  |  |  |  |  |  |  | 
